Source: patent US10253002B2, “Compounds and methods of treating infections” (Neoculi Pty Ltd., priority 2013, dated 2019)
Values joined by “and” are separate entries in the source; they are usually repeats but may differ in a detail not shown here. Identical values can stand only once.

Tests used:
[1] = test system: DNA synthesis in S. aureus ATCC 29213; assay: Macromolecular synthesis assay: DNA synthesis ([3H] thymidine); format: cell-based, Staphylococcus aureus; settings: control; 8 fold the MIC (0.5 μg/mL)
Experimental: (§1) Cells were grown at 35° C. overnight on Trypticase Soy agar. A colony from the plate was used to inoculate 10 ml of Mueller Hinton broth II (MHBII), and the culture was grown to early exponential growth phase (OD600==0.2 to 0.3) while incubating in a shaker at 35° C. and 200 rpm.
When cells reached early exponential phase, 100 μL of culture was added to triplicate wells containing various concentrations of test compound or control antibiotics (5 μL) at 20× the final concentration in 100% DMSO. A 5% DMSO treated culture served as the “no drug” control for all experiments. Cells were added in MHBII at 105% to account for the volume of drug added to each reaction or in M9 minimal medium for protein synthesis reactions. Following 15 min incubation at room temperature, either [^3H] thymidine (DNA synthesis), [^3H] uridine (RNA synthesis) or [^3H] leucine (protein synthesis) was added at 0.5-1.0 μCi per reaction, depending on the experiment. Reactions were allowed to proceed at room temperature for 15-30 min and then stopped by adding 12 μL of cold 5% trichloroacetic acid (TCA) or 5% TCA/2% casamino acids (protein synthesis only). Reactions were incubated on ice for 30 min and the TCA precipitated material was collected on a 25 mm GF/A filter. After washing three times with 5 ml of cold 5% TCA, the filters were rinsed two times with 5 mL 100% ethanol, allowed to dry, and then counted using a Beckman LS3801 liquid scintillation counter.

[2] = test system: Staphylococcus aureus T3-129 / Staphylococcus spp. MK1; assay: Synergy studies, checkerboard method (FIC index); format: cell-based; settings: Staphylococcus spp. Strain MK1
[3] = test system: S. aureus isolates (HA-MRSA, CA-MRSA, methicillin-susceptible staphylococci); assay: Kirby-Bauer disc diffusion resistotyping, Example 4; format: cell-based, Staphylococcus aureus; settings: for Total isolates resistant (Kirby-Bauer disc diffusion): all isolates (n = 30)
Procedure, shortened: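 CLSI Kirby-Bauer disc diffusion on Mueller-Hinton agar. Overnight SBA cultures (37 °C) were suspended in saline and adjusted to 0.5 McFarland before spreading. Antibiotic discs were read after 24 h at 37 °C.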

[4] = test system: Staphylococcus pseudintermedius isolates (MSSP and MRSP); assay: Disk diffusion and Epsilometer susceptibility testing, Example 6; format: cell-based; settings: 13 MRSP isolates
S. pneumoniae isolates = assay: Disk diffusion susceptibility (CLSI/EUCAST), Example 5; format: cell-based, Streptococcus pneumoniae
Procedure, shortened: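 Susceptibility to 12 antimicrobials was categorised (S/I/R) using CLSI breakpoints from zones of complete inhibition, read thrice to the nearest millimetre with the mode taken. Incubation was 16–24 h, 37 °C, 5% CO2.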

[5] = test system: cell wall synthesis in S. aureus ATCC 29213; assay: Macromolecular synthesis assay: cell wall synthesis ([14C]N-acetylglucosamine); format: cell-based, Staphylococcus aureus; settings: positive control; 8 fold the MIC (2 μg/mL)
Experimental: as §1
Bacterial cells in early exponential growth phase were transferred to M9 minimal medium and added to 1.5 mL eppendorf tubes (100 μL/tube) containing various concentrations of test compound or control antibiotics (5 μL) at 20× the final concentration in 100% DMSO as described above. Following a 5 min incubation at 37° C., [^14C]N-acetylglucosamine (0.4 μCi/reaction) was added to each tube and incubated for 45 min in a 37° C. heating block. Reactions were stopped through the addition of 100 μL of 8% SDS to each tube. Reactions were then heated at 95° C. for 30 min in a heating block, cooled, briefly centrifuged, and spotted onto pre-wet HA filters ([…]). After washing three times with 5 mL of 0.1% SDS, the filters were rinsed two times with 5 ml of deionized water, allowed to dry, and then counted using a Beckman LS3801 liquid scintillation counter.

`O=C(O)c1cn(C2CC2)c2cc(N3CCNCC3)c(F)cc2c1=O` [Ciprofloxacin] was tested, and the “inhibition of DNA synthesis” value [1] was “approximately 51%”, the FICI ([2]; FIC index of antibiotic with NCL812) was 0.75 and 0.525 and 0.625 and 0.562 and the “Antibiotic MIC Alone” value ([2]; antibiotic alone) was 0.125 µg/mL and 0.25 µg/mL. For the same compound, the “Result (interaction with NCL812)” value ([2]; antibiotic with NCL812) was “NE (No effect (NE) was defined as 0.5<FICI<4)”.
`CN[C@H](CC(C)C)C(=O)N[C@H]1C(=O)N[C@@H](CC(N)=O)C(=O)N[C@H]2C(=O)N[C@H]3C(=O)N[C@H](C(=O)N[C@H](C(=O)O)c4cc(O)cc(O)c4-c4cc3ccc4O)[C@H](O)c3ccc(c(Cl)c3)Oc3cc2cc(c3O[C@@H]2O[C@H](CO)[C@@H](O)[C@H](O)[C@H]2O[C@H]2C[C@](C)(N)[C@H](O)[C@H](C)O2)Oc2ccc(cc2Cl)[C@H]1O` [Vancomycin] was tested, and the “isolates resistant (Kirby-Bauer disc diffusion)” value ([3]; CA-MRSA (n = 10)) was 0.00%, the “isolates resistant (Kirby-Bauer disc diffusion)” value ([3]; HA-MRSA (n = 10)) was 0.00% and the “isolates resistant (Kirby-Bauer disc diffusion)” value ([3]; Methicillin-susceptible staphylococci (n = 10)) was 0.00%. For the same compound, the “Total isolates resistant (Kirby-Bauer disc diffusion)” value [3] was 0.00%, the “Total isolates resistant (Kirby-Bauer disc diffusion)” value ([3]; listed as vancomycin) was “None of the isolates tested were vancomycin resistant” and the MRSP isolates susceptible [4] was 77%. The “disk diffusion zone diameter” value (S. pneumoniae isolates; A66.1) was 25 mm, the “disk diffusion zone diameter” value (S. pneumoniae isolates; D39) was 22 mm and the “disk diffusion zone diameter” value (S. pneumoniae isolates; EF3030) was 22 mm. The “disk diffusion zone diameter” value (S. pneumoniae isolates; L82016) was 23 mm, the “disk diffusion zone diameter” value (S. pneumoniae isolates; P9) was 21 mm and the “disk diffusion zone diameter” value (S. pneumoniae isolates; P21) was 21 mm. The “disk diffusion zone diameter” value (S. pneumoniae isolates; TIGR4) was 22 mm, the “disk diffusion zone diameter” value (S. pneumoniae isolates; WCH16) was 23 mm and the “disk diffusion zone diameter” value (S. pneumoniae isolates; WCH43) was 20 mm. The “disk diffusion zone diameter” value (S. pneumoniae isolates; WCH46) was 21 mm, the “disk diffusion zone diameter” value (S. pneumoniae isolates; WCH57) was 28 mm and the “disk diffusion zone diameter” value (S. pneumoniae isolates; WCH77) was 24 mm. The “disk diffusion zone diameter” value (S. pneumoniae isolates; WCH86) was 22 mm, the “disk diffusion zone diameter” value (S. pneumoniae isolates; WCH89) was 25 mm and the “disk diffusion zone diameter” value (S. pneumoniae isolates; WCH92) was 22 mm. For the same compound, the “disk diffusion zone diameter” value (S. pneumoniae isolates; WCH137) was 24 mm, the “disk diffusion zone diameter” value (S. pneumoniae isolates; WCH158) was 22 mm and the “disk diffusion zone diameter” value (S. pneumoniae isolates; WCH184) was 23 mm. The “disk diffusion zone diameter” value (S. pneumoniae isolates; WCH211) was 23 mm, the “disk diffusion zone diameter” value (S. pneumoniae isolates; WU2) was 21 mm and the “inhibition of cell wall synthesis” value [5] was 96%.
